Experimental data published in patent US11306098B2, “Substituted pyrrolo[1,2-a]pyrazines and pyrrolo[1,2-a][1,4]diazepines as TREX1 inhibitors” (VENENUM BIODESIGN, LLC, priority 2019, dated 2022).
Where a name gives a salt, the structure may show the parent alone.

What was measured:
murine TREX1 = murine TREX1 (Mus musculus (Mouse), UniProt Q91XB0); experiment: TREX1 Exonuclease Assay (murine enzyme); assay type: biochemical; conditions: murine TREX1 1 nM, FAM/BHQ1-labeled DNA oligonucleotide
Method: (§1) The TREX1 Exonuclease assay is an exemplary in vitro assay for measuring the activity of the TREX1 inhibitors of the present invention. In this assay, TREX1 exonuclease activity was evaluated by measuring the increase in fluorescence resulting from TREX1-catalyzed removal of a quencher from the 3′ end of a FAM-labeled DNA oligonucleotide (5′FAM-CCA CGA GAG CGT-BHQ1-3′). The assay was conducted using Wild Type (WT) human or murine TREX1 enzyme constructs corresponding to amino acids 55-297 of UniProt ID Q9NSU2-1 (SEQ ID NO: 1), or amino acids 1-242 of UniProt ID Q91XB0-1 (SEQ ID NO: 2), respectively. See, e.g., Example A.
(§2) For human TREX1, the nucleotide sequence of the gene construct was codon optimized for expression in the bacterial host. The sequence was incorporated into the pMAL-c5e vector (NEB) downstream of a solubility-promoting MBP (maltose binding protein) fusion partner. The fusion protein product was expressed in E. coli strain BL21 (DE3) (Millipore) and purified in a series of chromatographic steps. Initial steps were conducted using a dextrin sepharose affinity column followed by a Q-sepharose ion exchange column (both GE Healthcare). After the second column the MBP partner was removed by incubation with enterokinase (NEB). Further purification was carried out with the second application of a Q-sepharose column followed by a Superdex 75 (GE Healthcare) size exclusion column. Finally, a heparin sepharose column (GE Healthcare) was applied to remove contaminating nucleotides. Similar methods were used in the preparation of the murine TREX1 enzyme and are described in Example B set forth below.
(§3) To evaluate the effect of compounds on TREX1 activity, test compounds were serially diluted (11-point, 3-fold) from 10 mM stock solutions and delivered to 384-well low-volume assay plates in 80 nL DMSO using an acoustic dispenser. Next, 4 μL of human TREX1 (0.5 nM), or murine TREX1 (1 nM), diluted in assay buffer (20 mM Tris pH 7.5, 5 mM MgCl2, 100 μg/mL BSA, 0.002% Triton X-100, 2 mM DTT), was added to the assay plate. After incubating for 30 minutes, 4 μL of labeled DNA oligonucleotide (500 nM) in assay buffer was added to initiate TREX1 exonuclease activity. The reaction was allowed to proceed for 45 minutes at room temperature prior to the addition of 4 μL of 150 mM EDTA to halt TREX1 activity. Assay plates were equilibrated for an additional 30 minutes and read on an EnVision Plate Reader (Perkin Elmer) to measure fluorescence emission at 535 nm following excitation at 485 nm. Fluorescence was plotted as a function of log molar compound concentration and fit to four-parameter dose-response equation to determine compound IC50.

human TREX1 = human TREX1 (Homo sapiens (Human), UniProt Q9NSU2); experiment: TREX1 Exonuclease Assay (human enzyme); assay type: biochemical; conditions: human TREX1 0.5 nM, FAM/BHQ1-labeled DNA oligonucleotide
human TREX1, sequence (Q9NSU2 1-242): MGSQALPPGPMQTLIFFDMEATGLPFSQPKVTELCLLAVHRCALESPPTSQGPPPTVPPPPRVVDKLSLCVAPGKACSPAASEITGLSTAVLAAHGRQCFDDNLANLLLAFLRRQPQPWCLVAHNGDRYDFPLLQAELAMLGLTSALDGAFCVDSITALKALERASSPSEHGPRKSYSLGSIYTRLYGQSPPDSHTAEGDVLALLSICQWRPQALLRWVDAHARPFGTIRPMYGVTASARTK
Method: as §1, §2, §3

murine TREX1, sequence (Q91XB0 1-242): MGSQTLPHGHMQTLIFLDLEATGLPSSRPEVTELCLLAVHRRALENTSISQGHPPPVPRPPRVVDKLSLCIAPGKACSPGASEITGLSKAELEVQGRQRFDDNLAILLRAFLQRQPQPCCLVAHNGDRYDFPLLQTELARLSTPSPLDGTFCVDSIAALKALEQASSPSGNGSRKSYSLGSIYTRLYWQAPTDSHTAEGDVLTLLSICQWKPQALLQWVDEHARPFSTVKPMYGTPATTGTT

Structure (SMILES)	IC50 (murine TREX1) [µM]	IC50 (human TREX1) [µM]
N[C@@H]1C[C@H]2C(=O)N([C@H](CCC(=O)O)C(=O)NCc3ccc(C(F)(F)F)cc3)CCC(CCc3ccccc3)N2C1 (single isomer, unassigned) [Example 2A]	10 to 100	10 to 100
C[C@H](C(=O)NCc1ccc(C(F)(F)F)cc1)N1CCC(CCc2ccccc2)N2C[C@H](N)C[C@H]2C1=O (stereo partly shown) [Example 5]	< 1	< 1
CC(C)C[C@H](C(=O)NCc1ccc(C(F)(F)F)cc1)N1CCC(CCc2ccccc2)N2C[C@H](N)C[C@H]2C1=O (stereo partly shown) [Example 6]	< 1	< 1
CC(C)C[C@H](C(=O)N(C)Cc1ccc(C(F)(F)F)cc1)N1CCC(CCc2ccccc2)N2C[C@H](N)C[C@H]2C1=O (stereo partly shown) [Example 7]	1 to 9.99	1 to 9.99
CC(C)C[C@H](C(=O)NCc1ccccc1)N1CCC(CCc2ccccc2)N2C[C@H](N)C[C@H]2C1=O (stereo partly shown) [Example 8]	10 to 100	1 to 9.99
Cc1ccc(CNC(=O)[C@@H](CC(C)C)N2CCC(CCc3ccccc3)N3C[C@H](N)C[C@H]3C2=O)cc1 (stereo partly shown) [Example 9]	1 to 9.99	1 to 9.99
CC(C)C[C@H](C(=O)NCc1ccc(Cl)c(Cl)c1)N1CCC(Cc2ccccc2)N2C[C@H](N)C[C@H]2C1=O (stereo partly shown) [Example 10]	1 to 9.99	1 to 9.99
CC(C)C[C@H](C(=O)NCc1ccc(Cl)c(Cl)c1)N1CCC(CCc2ccc(Cl)cc2)N2C[C@H](N)C[C@H]2C1=O (stereo partly shown) [Example 11]	1 to 9.99	< 1
CC(C)C[C@H](C(=O)NCC1CCCCC1)N1CCC(CCc2ccccc2)N2C[C@H](N)C[C@H]2C1=O (stereo partly shown) [Example 12]	10 to 100	10 to 100
CC(C)C[C@H](C(=O)NCc1ccc(Cl)c(Cl)c1)N1CCC(C)N2C[C@H](N)C[C@H]2C1=O (stereo partly shown) [Example 13]	10 to 100	10 to 100
N[C@@H]1C[C@H]2C(=O)N([C@H](CCC(=O)O)C(=O)NCc3ccc(Cl)c(Cl)c3)CCC(CCc3ccccc3)N2C1 (stereo partly shown) [Example 14A]	10 to 100	10 to 100
N[C@@H]1C[C@H]2C(=O)N([C@H](CCC(=O)O)C(=O)NCc3ccc(Cl)c(Cl)c3)CCC(COc3ccccc3)N2C1 (stereo partly shown) [Example 17]	< 1	< 1
CC(C)C[C@H](C(=O)NCc1ccc(Cl)c(Cl)c1)N1CCC(CSc2ccccc2)N2C[C@H](N)C[C@H]2C1=O (stereo partly shown) [Example 18]	< 1	< 1
CC(C)C[C@H](C(=O)NCc1ccc(Cl)c(Cl)c1)N1CCC(COc2ccccc2)N2C[C@H](N)C[C@H]2C1=O (stereo partly shown) [Example 19]	1 to 9.99	< 1
CC(=O)N[C@@H]1C[C@H]2C(=O)N([C@H](CC(C)C)C(=O)NCc3ccc(Cl)c(Cl)c3)CCC(CCc3ccccc3)N2C1 (stereo partly drawn) [Example 20, (2R)-2-((8R,9aS)-8-acetamido-1-oxo-5-phenethylhexahydro-1H-pyrrolo[1,2-a][1,4]diazepin-2(3H)-yl)-N-(3,4-dichlorobenzyl)-4-methylpentanamide HCl]	10 to 100	1 to 9.99
CC(C)C[C@H](C(=O)NCc1ccc(Cl)c(Cl)c1)N1CCC(CCc2ccccc2)N2C[C@H](N(C)C)C[C@H]2C1=O (stereo partly drawn) [Example 21, (2R)—N-(3,4-dichlorobenzyl)-2-((8R,9aS)-8-(dimethylamino)-1-oxo-5-phenethylhexahydro-1H-pyrrolo[1,2-a][1,4]diazepin-2(3H)-yl)-4-methylpentanamide HCl]	> 100	10 to 100
CC(C)C[C@H](C(=O)NCc1ccc(Cl)c(Cl)c1)N1CC(CCc2ccccc2)N2C[C@H](N)C[C@H]2C1=O (stereo partly drawn) [Example 22, (2R)-2-((7R,8aS)-7-amino-1-oxo-4-phenethylhexahydropyrrolo[1,2-a]pyrazin-2(1H)-yl)-N-(3,4-dichlorobenzyl)-4-methylpentanamide.HCl]	10 to 100	10 to 100
CC(C)C[C@H](C(=O)NCCc1ccccc1)N1CCC(CCc2ccccc2)N2C[C@H](N)C[C@H]2C1=O (stereo partly shown) [Example 23]	10 to 100	1 to 9.99
CC(C)C[C@H](C(=O)N[C@H](C)c1ccccc1)N1CCC(CCc2ccccc2)N2C[C@H](N)C[C@H]2C1=O (stereo partly shown) [Example 24]	10 to 100	10 to 100

Structure (SMILES)	IC50 (murine TREX1) [µM]	IC50 (human TREX1) [µM]
CC(C)C[C@H](C(=O)N[C@@H](C)c1ccccc1)N1CCC(CCc2ccccc2)N2C[C@H](N)C[C@H]2C1=O (stereo partly shown) [Example 25]	10 to 100	10 to 100
CC(C)C[C@H](C(=O)NCc1cccc(Cl)c1)N1CCC(CCc2ccccc2)N2C[C@H](N)C[C@H]2C1=O (stereo partly shown) [Example 26]	1 to 9.99	< 1
CC(C)C[C@H](C(=O)NCc1ccccc1Cl)N1CCC(CCc2ccccc2)N2C[C@H](N)C[C@H]2C1=O (stereo partly shown) [Example 27]	10 to 100	1 to 9.99
CC(C)C[C@H](C(=O)NCc1cnccn1)N1CCC(CCc2ccccc2)N2C[C@H](N)C[C@H]2C1=O (stereo partly shown) [Example 28]	10 to 100	1 to 9.99
CC(C)C[C@H](C(=O)NCc1cscn1)N1CCC(CCc2ccccc2)N2C[C@H](N)C[C@H]2C1=O (stereo partly shown) [Example 30]	10 to 100	1 to 9.99
CC(C)C[C@H](C(=O)NCc1ccc(Cl)cc1Cl)N1CCC(CCc2ccccc2)N2C[C@H](N)C[C@H]2C1=O (stereo partly shown) [Example 31]	1 to 9.99	< 1
CC(C)C[C@H](C(=O)NCc1ccc(C#N)cc1)N1CCC(CCc2ccccc2)N2C[C@H](N)C[C@H]2C1=O (stereo partly shown) [Example 32]	10 to 100	1 to 9.99
CC(C)C[C@H](C(=O)NCc1cc(Cl)cc(Cl)c1)N1CCC(CCc2ccccc2)N2C[C@H](N)C[C@H]2C1=O (stereo partly shown) [Example 33]	1 to 9.99	< 1
CC(C)C[C@H](C(=O)NCc1ccc(F)cc1)N1CCC(CCc2ccccc2)N2C[C@H](N)C[C@H]2C1=O (stereo partly shown) [Example 34]	1 to 9.99	< 1
CC(C)C[C@H](C(=O)NS(=O)(=O)c1ccccc1)N1CCC(CCc2ccccc2)N2C[C@H](N)C[C@H]2C1=O (stereo partly shown) [Example 35]	1 to 9.99	1 to 9.99
CC(C)C[C@H](C(=O)NCCc1ccc(Cl)c(Cl)c1)N1CCC(CCc2ccccc2)N2C[C@H](N)C[C@H]2C1=O (stereo partly shown) [Example 37]	1 to 9.99	< 1
N[C@@H]1C[C@H]2C(=O)N([C@H](CCc3nsc(=O)[nH]3)C(=O)NCc3ccc(Cl)c(Cl)c3)CCC(CCc3ccccc3)N2C1 (stereo partly shown) [Example 38]	< 1	< 1
CC(C)C[C@H](C(=O)NS(=O)(=O)c1ccc(Cl)c(Cl)c1)N1CCC(CCc2ccccc2)N2C[C@H](N)C[C@H]2C1=O (stereo partly shown) [Example 39]	< 1	< 1
CCC[C@H](CNS(=O)(=O)c1ccc(Cl)c(Cl)c1)N1CCC(CCc2ccccc2)N2C[C@H](N)C[C@H]2C1=O (stereo partly shown) [Example 40]	1 to 9.99	< 1
CC(C)C[C@H](C(=O)NCc1ccc(Cl)c(Cl)c1)N1CCC(CS(=O)(=O)c2ccccc2)N2C[C@H](N)C[C@H]2C1=O (stereo partly shown) [Example 41]	10 to 100	1 to 9.99
N#CCC[C@H](C(=O)NCc1ccc(Cl)c(Cl)c1)N1CCC(CCc2ccccc2)N2C[C@H](N)C[C@H]2C1=O (stereo partly shown) [Example 45]	< 1	< 1
CC(C)C[C@H](C(=O)NCc1ccc(Cl)cc1)N1CCC(CCc2ccccc2)N2C[C@H](N)C[C@H]2C1=O (stereo partly shown) [Example 46]	1 to 9.99	< 1
CC(C)C[C@H](C(=O)NCc1ccc(Cl)c(Cl)c1)N1CCC(CCc2ccccc2)N(CCN)CC1=O (stereo partly shown) [Example 47]	10 to 100	1 to 9.99
Cc1nnc(CC[C@H](C(=O)NCc2ccc(Cl)c(Cl)c2)N2CCC(CCc3ccccc3)N3C[C@H](N)C[C@H]3C2=O)[nH]1 (stereo partly shown) [Example 48]	< 1	< 1
